Measured values taken from publication PMC12892976, “Alkylation-based optimization of antifungal FPPS inhibitors yields a potent, broad-spectrum lipophilic zoledronate derivative” (mBio, 2025).
≈ marks a conversion by molar mass, not a printed value.

Tests used:
[1] = tested on: Trichophyton tonsurans; assay: checkerboard drug interaction (FICI, MICc); type: cell-based;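 further: simplified diagonal checkerboard screen combining antifungals with FPPS inhibitors, with FICI calculated under the Loewe additivity model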
Method: (§1) Drug interactions between antifungals and FPPS inhibitors were investigated using a simplified checkerboard diagonal screening method ([45]). […] FICIs were determined according to the Loewe additivity model ([17]).

[2] = tested on: Aspergillus flavus; assay: checkerboard drug interaction (FICI, MICc); type: cell-based;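 further: simplified diagonal checkerboard screen pairing azole antifungals with FPPS inhibitors, FICI calculated under the Loewe additivity model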
Method: as §1

[3] = tested on: Candida albicans; assay: MIC/MFC broth microdilution (CLSI); type: cell-based; conditions: Candida albicans SC5314
Method: (§2) Antifungal susceptibility was determined by broth microdilution according to the CLSI guidelines described in M27-Ed4 ([16]). […] MFC was determined by back-plating drug-treated cultures from MIC broths onto SDA plates. The MFC was defined as the lowest concentration from which no colonies could be cultured.

[4] = tested on: Trichophyton rubrum; assay: MIC/MFC broth microdilution (CLSI); conditions: Trichophyton rubrum R-218
Method: as §2

[5] = tested on: Aspergillus fumigatus; assay: MIC/MFC broth microdilution (CLSI); conditions: ATCC204305
Method: as §2

[6] = tested on: Cryptococcus deuterogattii; assay: MIC/MFC broth microdilution (CLSI); conditions: Cryptococcus deuterogattii R265;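 further: broth microdilution per CLSI M27-Ed4. MFC is the lowest concentration yielding no colonies when MIC broths are subcultured onto SDA plates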
Method: as §2

[7] = tested on: Aspergillus parafelis; assay: MIC broth microdilution (CLSI); type: cell-based; conditions: Aspergillus parafelis DTO 341-F2
Method: (§3) Antifungal susceptibility was determined by broth microdilution according to the CLSI guidelines described in M27-Ed4 ([16]).

[8] = tested on: Cryptococcus neoformans; assay: MIC/MFC broth microdilution (CLSI); conditions: Cryptococcus neoformans H99;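 further: susceptibility testing followed the CLSI M27-Ed4 broth microdilution document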
Method: as §2

[9] = tested on: Candida albicans; assay: checkerboard drug interaction (FICI, MICc); type: cell-based;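 further: antifungal plus FPPS inhibitor combinations on Candida albicans tested by a simplified diagonal checkerboard screen, with FICI calculated under the Loewe additivity model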
Method: as §1

[10] = tested on: Candida glabrata; assay: MIC/MFC broth microdilution (CLSI); conditions: Candida glabrata CBS138 (ATCC 2001);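 further: broth microdilution following CLSI M27-Ed4, MFC taken as the lowest drug level yielding no growth once MIC wells were subcultured on SDA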
Method: as §2

[11] = tested on: Candida glabrata; assay: checkerboard drug interaction (FICI, MICc); type: cell-based;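 further: simplified diagonal checkerboard screen pairing antifungals with FPPS inhibitors, FICI calculated under the Loewe additivity model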
Method: as §1

[12] = tested on: Aspergillus fumigatus; assay: checkerboard drug interaction (FICI, MICc); type: cell-based;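 further: simplified diagonal checkerboard screen pairing antifungals with FPPS inhibitors against Aspergillus fumigatus, with FICI calculated under the Loewe additivity model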
Method: as §1

[13] = tested on: Cryptococcus deuterogattii; assay: checkerboard drug interaction (FICI, MICc); type: cell-based;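 further: simplified diagonal checkerboard screen pairing antifungal drugs with FPPS inhibitors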
Method: as §1

[14] = tested on: Saccharomyces cerevisiae; assay: MIC/MFC broth microdilution (CLSI); type: cell-based; conditions: Saccharomyces cerevisiae S288c
Method: as §2

[15] = tested on: Cryptococcus neoformans; assay: checkerboard drug interaction (FICI, MICc); type: cell-based;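 further: antifungal plus FPPS inhibitor pairs tested against Cryptococcus neoformans by simplified diagonal checkerboard screening, FICI computed under the Loewe additivity model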
Method: as §1

[16] = tested on: Aspergillus flavus; assay: MIC/MFC broth microdilution (CLSI); conditions: ATCC204304
Method: as §2

[17] = tested on: Saccharomyces cerevisiae; assay: checkerboard drug interaction (FICI, MICc); type: cell-based;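 further: simplified diagonal checkerboard screen pairing antifungals with FPPS inhibitors, FICI calculated under the Loewe additivity model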
Method: as §1

[18] = tested on: Trichophyton rubrum; assay: checkerboard drug interaction (FICI, MICc); type: cell-based;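 further: simplified diagonal checkerboard screen pairing azole antifungals with FPPS inhibitors, FICI calculated under the Loewe additivity model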
Method: as §1

[19] = tested on: Aspergillus udagawae; assay: MIC broth microdilution (CLSI); type: cell-based; conditions: Aspergillus udagawae 8G81
Method: as §3

Structure (SMILES) | antifungal MICc ([1]; in combination with 10-ZOL) | antifungal MICc ([1]; in combination with ZOL) | antifungal MICc ([2]; in combination with 10-ZOL) | antifungal MICc ([2]; in combination with ZOL) | MIC / MEC [3] [µg/mL] | MIC / MEC [4] [µg/mL] | MIC / MEC [5] [µg/mL] | MIC / MEC [6] [µg/mL] | MIC / MEC [7] [µg/mL] | MIC / MEC [8] [µg/mL] | antifungal MICc ([9]; in combination with 10-ZOL) | antifungal MICc ([9]; in combination with ZOL) | MIC / MEC [10] [µg/mL] | antifungal MICc ([11]; in combination with 10-ZOL) | antifungal MICc ([11]; in combination with ZOL) | antifungal MICc ([12]; in combination with 10-ZOL) | antifungal MICc ([12]; in combination with ZOL) | antifungal MICc ([13]; in combination with 10-ZOL) | antifungal MICc ([13]; in combination with ZOL) | MIC / MEC [14] [µg/mL] | also measured
Nc1nc(=O)[nH]cc1F [5FC, 5-flucytosine] | 64 | 64 | 256 | 128 | 0.25 (≈ 1.94 µM) | >64 | >64 | 8 (≈ 62 µM) | >64 | 4 (≈ 31 µM) | 0.125 | 0.25 | 0.25 (≈ 1.94 µM) | 0.125 | 0.125 | 256 | 128 | 0.5 | 0.125 | 1 (≈ 7.75 µM) | antifungal MICc ([15]; in combination with 10-ZOL): 0.25; antifungal MICc ([15]; in combination with ZOL): 1; MIC / MEC [16]: >64 µg/mL; antifungal MICc ([17]; in combination with 10-ZOL): 1; antifungal MICc ([17]; in combination with ZOL): 1; antifungal MICc ([18]; in combination with 10-ZOL): 32; antifungal MICc ([18]; in combination with ZOL): 128; MIC / MEC [19]: >64 µg/mL
C[C@@H]1[C@H](O)[C@@H](C)/C=C/C=C/C=C/C=C/C=C/C=C/C=C/[C@H](O[C@@H]2O[C@H](C)[C@@H](O)[C@H](N)[C@@H]2O)C[C@@H]2O[C@](O)(C[C@@H](O)C[C@@H](O)[C@H](O)CC[C@@H](O)C[C@@H](O)CC(=O)O[C@H]1C)C[C@H](O)[C@H]2C(=O)O [AMB, amphotericin B] | 0.25 | 0.25 | 0.5 | 0.25 | 0.25 (≈ 0.271 µM) | 1 (≈ 1.08 µM) | 0.25 (≈ 0.271 µM) | 0.25 (≈ 0.271 µM) | 4 (≈ 4.33 µM) | 0.25 (≈ 0.271 µM) | 0.25 | 0.25 | 0.25 (≈ 0.271 µM) | 0.5 | 0.125 | 0.125 | 0.25 | 0.25 | 0.25 | 0.25 (≈ 0.271 µM) | antifungal MICc ([15]; in combination with 10-ZOL): 0.5; antifungal MICc ([15]; in combination with ZOL): 0.5; MIC / MEC [16]: 0.5 µg/mL (≈ 0.541 µM); antifungal MICc ([17]; in combination with 10-ZOL): 0.25; antifungal MICc ([17]; in combination with ZOL): 0.5; antifungal MICc ([18]; in combination with 10-ZOL): 0.5; antifungal MICc ([18]; in combination with ZOL): 2; MIC / MEC [19]: 2 µg/mL (≈ 2.16 µM)
CC[C@H](C)C[C@H](C)CCCCCCCCC(=O)N[C@H]1C[C@@H](O)[C@@H](NCCN)NC(=O)[C@@H]2[C@@H](O)CCN2C(=O)[C@H]([C@H](O)CCN)NC(=O)[C@H]([C@H](O)[C@@H](O)c2ccc(O)cc2)NC(=O)[C@@H]2C[C@@H](O)CN2C(=O)[C@H]([C@@H](C)O)NC1=O [CAS, caspofungin] | 2 | 0.25 | 2 | 4 | 0.13 (≈ 0.119 µM) | 0.25 (≈ 0.229 µM) | 16 (≈ 14.6 µM) | 16 (≈ 14.6 µM) | 0.13 (≈ 0.119 µM) | 8 (≈ 7.32 µM) | 0.063 | 0.25 | 0.13 (≈ 0.119 µM) | 0.125 | 0.25 | 8 | 8 | 4 | 16 | 0.5 (≈ 0.457 µM) | antifungal MICc ([15]; in combination with 10-ZOL): 2; antifungal MICc ([15]; in combination with ZOL): 16; MIC / MEC [16]: 8 µg/mL (≈ 7.32 µM); antifungal MICc ([17]; in combination with 10-ZOL): 0.125; antifungal MICc ([17]; in combination with ZOL): 0.5; antifungal MICc ([18]; in combination with 10-ZOL): 0.25; antifungal MICc ([18]; in combination with ZOL): 0.063; MIC / MEC [19]: 2 µg/mL (≈ 1.83 µM)
C[C@@H](c1ncncc1F)[C@](O)(Cn1cncn1)c1ccc(F)cc1F [VOR] | 0.063 | 0.0625 | 0.06 | 0.25 | 0.13 (≈ 0.372 µM) | 1 (≈ 2.86 µM) | 0.5 (≈ 1.43 µM) | 0.25 (≈ 0.716 µM) | 8 (≈ 22.9 µM) | 0.13 (≈ 0.372 µM) | 0.063 | 0.125 | 0.25 (≈ 0.716 µM) | 0.25 | 0.0625 | 0.25 | 2 | 0.125 | 0.063 | 0.5 (≈ 1.43 µM) | antifungal MICc ([15]; in combination with 10-ZOL): 0.063; antifungal MICc ([15]; in combination with ZOL): 0.0625; MIC / MEC [16]: 0.5 µg/mL (≈ 1.43 µM); antifungal MICc ([17]; in combination with 10-ZOL): 0.25; antifungal MICc ([17]; in combination with ZOL): 0.25; antifungal MICc ([18]; in combination with 10-ZOL): 0.25; antifungal MICc ([18]; in combination with ZOL): 0.25; MIC / MEC [19]: 1 µg/mL (≈ 2.86 µM)
